Publication PMC9126592, “sp^2-Iminosugars targeting human lysosomal β-hexosaminidase as pharmacological chaperone candidates for late-onset Tay-Sachs disease” (Journal of Enzyme Inhibition and Medicinal Chemistry, 2022)
Like-named read-outs stand apart in the source and are kept apart here.

How the values were obtained:
Format in all cases: biochemical
[1] = target: Total Hex (human lysosomal β-hexosaminidase); assay: Inhibition of total β-hexosaminidase in human fibroblast lysates; conditions: mean of three determinations
Method: (§1) For determination of lysosomal enzyme activities in cell lysates, cells were scraped into ice-cold H2O (10^6 cells mL^−1) and lysed by sonication. Insoluble materials were removed by centrifugation at 15,000 rpm for 5 min and protein concentrations were determined with Protein Assay Rapid Kit (WAKO, Tokyo, Japan). 10 µL of the lysates in 0.1% Triton X-100 in distilled water were incubated at 37 °C with 20 µL of the substrate solution in 0.1 M citrate buffer, pH 4.5, in absence or presence of increasing concentrations of the chaperones. The substrates were 4-methylumbelliferone (4-MU)-conjugated β-D-glucopyranoside (for GCase), α-D-glucopyranoside (for α-glucosidase), α-D-galactopyranoside (for α-Galase), β-D-galactopyranoside (for β-galactosidase), N-acetyl-β-D-glucosaminide (for total β-hexosaminidase), N-acetyl-β-D-glucosaminide-6-sulfate sodum salt (for HexA) and α-N-acetyl-D-galactosaminide for α-N-acetylgalactosaminidase. HexA activities in cell lysates were also determined in 0.1 M citrate buffer at pH 5 or pH 7, supplemented with sodium taurocholate (0.8% w/v). The reactions were terminated by adding 0.2 ml of 0.2 M glycine sodium hydroxide buffer (pH 10.7). The liberated 4-methylumbelliferone was measured in the black-well plate with a Perkin Elmer Luminescence Spectrometer (excitation wavelength: 340 nm; emission: 460 nm). One unit of enzyme activity was defined as nmol of 4-methylumbelliferone released per hour and normalised for the amount of protein contained in the lysates.

[2] = target: T1, HexA (human lysosomal β-hexosaminidase A) (Homo sapiens, UniProt P06865); assay: Inhibition of HexA in human fibroblast lysates at pH 7 or pH 5
T1 construct: HexA activities in cell lysates were also determined in 0.1 M citrate buffer at pH 5 or pH 7; endogenous in cells; host or cells: human fibroblasts (lysate)
T1 sequence (P06865 89-529): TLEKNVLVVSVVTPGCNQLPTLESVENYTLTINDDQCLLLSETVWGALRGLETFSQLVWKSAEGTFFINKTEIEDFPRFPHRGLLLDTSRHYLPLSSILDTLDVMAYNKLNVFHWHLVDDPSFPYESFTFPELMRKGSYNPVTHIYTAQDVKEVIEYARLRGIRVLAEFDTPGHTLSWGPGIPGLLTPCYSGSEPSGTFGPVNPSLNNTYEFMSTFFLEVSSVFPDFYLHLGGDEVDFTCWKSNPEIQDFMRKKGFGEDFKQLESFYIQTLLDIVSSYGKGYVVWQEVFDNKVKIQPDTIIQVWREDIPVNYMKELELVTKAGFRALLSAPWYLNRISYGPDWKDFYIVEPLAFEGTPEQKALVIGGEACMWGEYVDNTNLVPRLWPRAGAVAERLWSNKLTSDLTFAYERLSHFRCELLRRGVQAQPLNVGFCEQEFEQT
T1 sequence (P07686 122-556 partner): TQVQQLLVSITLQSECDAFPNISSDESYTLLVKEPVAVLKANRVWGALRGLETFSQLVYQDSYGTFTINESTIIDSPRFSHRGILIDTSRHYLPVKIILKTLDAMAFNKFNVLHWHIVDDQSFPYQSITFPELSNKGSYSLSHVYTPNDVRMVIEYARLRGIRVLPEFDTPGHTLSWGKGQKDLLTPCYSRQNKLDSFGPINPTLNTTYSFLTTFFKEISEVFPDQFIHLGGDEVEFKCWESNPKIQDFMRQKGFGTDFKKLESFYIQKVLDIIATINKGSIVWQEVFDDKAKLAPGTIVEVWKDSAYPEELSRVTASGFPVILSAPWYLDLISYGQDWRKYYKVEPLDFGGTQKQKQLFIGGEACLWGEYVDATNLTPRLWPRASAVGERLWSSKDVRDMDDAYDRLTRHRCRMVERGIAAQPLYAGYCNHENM
Method: as §1

[3] = target: β-hexosaminidase from bovine kidney; assay: Commercial enzyme inhibition assay, β-hexosaminidase from bovine kidney; conditions: mean ± SD (n = 3); competitive
Method: Inhibition constant (Ki) values were determined by spectrophotometrically measuring the residual hydrolytic activities of the glycosidases against the respective o- (for β-galactosidase from E. coli) or p-nitrophenyl α- or β-D-glycopyranoside (for other glycosidases) in the presence of the iminosugars. Each assay was performed in phosphate buffer or phosphate-citrate buffer (for α- or β-mannosidase, amyloglucosidase or β-N-acetylglucosaminidase) at the optimal pH for the enzymes. The reactions were initiated by addition of the enzyme to a solution of the substrate in the absence or presence of various inhibitor concentrations. The mixture was incubated for 10–30 min at 37 °C or 55 °C (for amyloglucosidase) and the reaction was quenched by addition of 1 m Na2CO3. Reaction times were appropriate to obtain 10%–20% conversion of the substrate in order to achieve linear rates. The absorbance of the resulting mixture was determined at 405 nm. Approximate values of Ki were determined using a fixed concentration of substrate (around the KM value for the different glycosidases) and various inhibitor concentrations. Full Ki determinations and the enzyme inhibition mode were determined from the slope of Lineweaver-Burk plots and double reciprocal analysis.

[4] = pH 5, competitive, read-out: Ki HexA pH 5
[5] = pH 7, competitive, read-out: Ki HexA pH 7

SMILES | IC50 [1] | Ki [2, 4] | Ki [2, 5] | Ki [3]
CCCCNC(=S)N1C[C@H](NC(C)=O)[C@@H](O)[C@@H](O)[C@H]1CO [Compound 1, 2-Acetamido-1,2-dideoxy-5-N-(N’-butylthiocarbamoyl)galactonojirimycin] | > 100000 nM | 33.7 µM | 4.7 µM | 3500 ± 200 nM
CCCCCCCCNC(=S)N1C[C@H](NC(C)=O)[C@@H](O)[C@@H](O)[C@H]1CO [Compound 2, 2-Acetamido-1,2-dideoxy-5-N-(N’-octylthiocarbamoyl)galactonojirimycin] | > 100000 nM | > 100 µM | > 100 µM | 2200 ± 100 nM
CC(=O)N[C@H]1CN(C(=S)NCc2ccccc2)[C@H](CO)[C@H](O)[C@@H]1O [Compound 3, 2-Acetamido-1,2-dideoxy-5-N-(N’-benzylthiocarbamoyl)galactonojirimycin] | > 100000 nM | > 100 µM | > 100 µM | 6300 ± 200 nM
CC(=O)N[C@H]1CN(C(=S)Nc2ccccc2)[C@H](CO)[C@H](O)[C@@H]1O [Compound 4, 2-Acetamido-1,2-dideoxy-5-N-(N’-phenylthiocarbamoyl)galactonojirimycin] | 10900 nM | 9.4 µM | 0.91 µM | 140 ± 10 nM
CCCCN=C1SCC2C(O)C(O)C(NC(C)=O)CN12 (stereo not drawn) [Compound 5, 2-Acetamido-1,2-dideoxy-5-N,6-S-(N’-butyliminomethylidene)-6-thiogalactonojirimycin] | 2600 nM | 9.8 µM | 0.99 µM | 24 ± 2 nM
CCCCCCCCN=C1SCC2C(O)C(O)C(NC(C)=O)CN12 (stereo not drawn) [Compound 6, 2-Acetamido-1,2-dideoxy-5-N,6-S-(N’-octyliminomethylidene)-6-thiogalactonojirimycin] | 1300 nM | 6.4 µM | 0.58 µM | 15 ± 1 nM
CC(=O)NC1CN2C(=NCc3ccccc3)SCC2C(O)C1O (stereo not drawn) [Compound 7, 2-Acetamido-1,2-dideoxy-5-N,6-S-(N’-benzyliminomethylidene)-6-thiogalactonojirimycin] | 2200 nM | 6.9 µM | 0.66 µM | 20 ± 1 nM
CC(=O)NC1CN2C(=Nc3ccccc3)SCC2C(O)C1O (stereo not drawn) [Compound 8, 2-Acetamido-1,2-dideoxy-5-N,6-S-(N’-phenyliminomethylidene)-6-thiogalactonojirimycin] | 330 nM | 3.9 µM | 0.41 µM | 46 ± 2 nM
